Values quoted from earlier work in patent publication US20140296830A1 (priority 2013, published 2014).

Key:
[1] = versus mepivacaine and lidocaine
[2] = pH 4

Compound	potency relative to mepivacaine and lidocaine [1]	solution stability [2]
CCCCN1CCCCC1C(=O)Nc1c(C)cccc1C (centres unmarked) [bupivacaine]	about 4 times	–
CSCC[C@@H]1NC(=O)[C@H](CC(C)C)NC(=O)[C@H](CCCNC(=N)N)NC(=O)[C@H](CO)NC(=O)[C@@H]2CSSC[C@@H]3NC(=O)[C@H](CO)NC(=O)CNC(=O)[C@H]([C@@H](C)O)NC(=O)[C@H](CSSC[C@H](N)C(=O)N[C@@H](CCCCN)C(=O)NCC(=O)N[C@@H](CCCCN)C(=O)NCC(=O)N[C@@H](C)C(=O)N[C@@H](CCCCN)C(=O)N2)NC(=O)[C@H](CSSC[C@@H](C(N)=O)NC(=O)[C@H](CCCCN)NC(=O)CNC(=O)[C@H](CO)NC(=O)[C@H](CCCNC(=N)N)NC3=O)NC(=O)[C@H](CC(=O)O)NC(=O)[C@H](Cc2ccc(O)cc2)NC1=O [ziconotide]	–	stable at 45 °C for weeks
